We go through one compound from US4001272A, “Herbicidal 2-fluoro-4-halo-phenyl-4,5,6,7-tetrahydro-2H-isoindole-1,3-diones” (E. I. Du Pont de Nemours and Company, priority 1974, dated 1977).

Each structure is given as a SMILES string.

Format in all cases: in vivo
One data set relates to lima beans. Nature of the data set: Test A: field test, crop response of lima beans. Particulars: seven weeks, 0 = no injury to 10 = complete kill. The text has this: (§1) In test A, soybeans, peanuts, lima beans, green beans and squash were planted in a field infested with the following weed seeds: crabgrass (Digitaria sanquinalis), foxtails (Setaria spp.), barnyardgrass (Echinochloa crusgalli), pigweed (Amaranthus spp.), ragweed (Ambrosia artemisiifolia), velvetleaf (Abutilon theophrasti), purslane (Portulaca oleracea) and flower-of-an-hour (Hibiscus trionum). A 50% wettable powder formulation of 2-(4-chloro-2-fluorophenyl)-4,5,6,7-tetrahydro-2H-isoindole-1,3-dione was applied in the form of an aqueous suspension at rates of 0.125, 0.25, 0.5 and 1.0 kg/ha, each treatment replicated twice. The plots were rated for percent weed control and crop response seven weeks after treatment. Crop response was expressed on a scale of 0 = no injury to 10 = complete kill.

In data set [1] the test system is barnyardgrass (Echinochloa crusgalli). Nature of the data set: Test A: field test, percent weed control of barnyardgrass. To be noted: seven weeks after treatment.
Text: as §1

Data set [2] concerns pigweed (Amaranthus spp.). Nature of the data set: Test A: field test, percent weed control of pigweed. To be noted: seven weeks after treatment.
Text: as §1

A further data set concerns foxtails (Setaria spp.). The data set is described as follows: Test A: field test, percent weed control of foxtails. Particulars: seven weeks after treatment.
Text: as §1

Regarding `O=C1C2=C(CCCC2)C(=O)N1c1ccc(Cl)cc1F` [Treatment I, 2-(4-chloro-2-fluorophenyl)-4,5,6,7-tetrahydro-2H-isoindole-1,3-dione], the “Crop Response, Lima beans” value in the data set with lima beans (0.125 kg/ha) is listed as 0; in the data set on lima beans (0.25 kg/ha), 1; in the data set with lima beans (0.50 kg/ha), 4; with lima beans (1.00 kg/ha) it was 8.5. For the same compound, the “% Control, Barnyardgrass” value in data set [1] (0.125 kg/ha) is 45%; in data set [1] (0.25 kg/ha) it was 82%; in data set [1] (0.50 kg/ha), 98%; in data set [1] (1.00 kg/ha) it was 99%. The “% Control, Pigweed” value in data set [2] (0.125 kg/ha) was found to be 90%; in data set [2] (0.25 kg/ha) it was 98%; in data set [2] (0.50 kg/ha), 95%; in data set [2] (1.00 kg/ha) it was 100%. For the same compound, the “% Control, Foxtail” value with foxtails (Setaria spp.) (0.125 kg/ha) came out at 40%; in the data set with foxtails (Setaria spp.) (0.25 kg/ha), 82%; in the data set with foxtails (Setaria spp.) (0.50 kg/ha) it was 95%; with foxtails (Setaria spp.) (1.00 kg/ha), 99%.
